pKd: −log10 of the molar value.
Columns and labels:
[1] = Partition coefficient log P (octanol/ultrapure water); type: physicochemical; details: ultrapure water/octanol = 1/1
Description: Log P: Generally, approximately 74–185 kBq of the ^68Ga-labelled radiotracer was combined with a solvent mixture (2 mL, ultrapure water/octanol = 1/1). After 5 min of agitation in a vortex mixer, the aqueous and nonaqueous phases were separated by centrifugation at 15000 g. The radioactivity of each sampling layer (100 μL) was measured using a γ-counter. The trial was conducted five times.

[2] = Partition coefficient log D7.4 (octanol/PBS); type: physicochemical; details: PBS (pH = 7.4)/octanol = 1/1
Description: Log D7.4: Similarly, approximately 74–185 kBq of the ^68Ga-labelled radiotracer was combined with a solvent mixture (2 mL, PBS (pH = 7.4)/octanol = 1/1). The partition coefficient experiment was repeated, as mentioned previously.

SK-OV-3 and A549 cells = assay: Cell uptake of radiotracers in SK-OV-3 and A549 cells; type: cell-based; details: 2 h incubation at 37 °C
Description: SK-OV-3 and A549 cells were seeded in 6-well plates (500 × 10^3/well) for 24 h. Then, the cells were incubated separately with the three ^68Ga-labelled radiotracers (740 kBq/1 mL in each well) at 37 °C. To eliminate unbound ^68Ga-labelled radiotracers, the cells were rinsed three times with PBS (0.5 mL) 2 h after incubation. Cell suspensions were produced after adding pancreatin (0.5–0.8 mL). Finally, a γ-counter was used to measure the radioactivity. The radioactivity data are presented as CPM (counts per minute) with time-decay correction. Three replicate experiments were conducted.

[3] = Pharmacokinetics (blood clearance) in normal mice; type: in vivo; details: tail vein injection, blood radioactivity
Description: The pharmacokinetic parameters of the three ^68Ga-labelled radiotracers were evaluated in normal mice. The three ^68Ga-labelled radiotracers were injected into mice via the tail veins at a dose of 1.48–2.96 MBq/mouse in approximately 200 μL. Blood samples were obtained via the tail vein using tared capillary tubes at 1, 3, 5, 10, 15, 30, 60, 120, and 180 min after radiotracer injection. The blood volume drawn was approximately 0.5–0.8 dispense capillary volumes at each time point. Dispense capillary tube was from Shanghai Great Wall Scientific Instruments Store (size: 0.5 × 100; diameter: 0.5 mm; length: 100 mm). The radioactivity was determined with a γ-counter and decay-corrected to the injection time. All samples were weighed. The radioactive CPM (counts per minute) by dividing by the mass of blood in the capillary are presented as %ID/g. Finally, the pharmacokinetic parameters were analysed by GraphPad Prism 9.0.

[4] = Plasma protein binding (ultrafiltration); type: in vitro ADME; details: mouse plasma
Description: To evaluate the plasma protein binding of the ^68Ga-labelled radiotracers, mouse blood from the heart was centrifuged at 4000 g for 5 min. The upper layer of blood was transferred to an EP tube and stored overnight in a refrigerator at 4 °C.
One hundred microliters of the ^68Ga-labelled radiotracer solution (0.74–1.48 MBq) was incubated with 100 μL of the above plasma. After 0.5, 1, and 2 h of incubation, the mixture was centrifuged at 15000 g for 10 min in a 30 K ultrafiltration tube. The radioactivity of the membrane and eluate was detected with a γ-counter. The radioactivity from the membrane, representing the tracer bound to plasma proteins, was estimated as a proportion of the total radioactivity of the sample. The experiment was repeated in triplicate.

SK-OV-3 models [5] = assay: MicroPET/CT imaging of SK-OV-3 models; type: in vivo, BALB/c nude mice
Description: (§1) Female BALB/c nude mice (6–8 weeks old) were utilized in all tumor-bearing mouse experiments. Twelve BALB/c nude mice were subcutaneously injected with SK-OV-3 cells (1 × 10^6) into the right armpit. The mice were used for investigation after the tumor diameter reached approximately 0.5–1.1 cm.
Six SK-OV-3 models were separated into two groups (^68Ga-labelled radiotracers and blocked groups). The ^68Ga-labelled radiotracers (2.96–5.55 MBq in 200 μL of saline) were administered via tail vein injection. Approximately 5 min before PET acquisition, the mice were anaesthetized by inhalation of a mixture of isoflurane and positioned in the scanner. The PET data for each mouse were acquired at 0.5, 1, and 2 h after injection. In the blocking studies, ^68 Ga-DOTA-Olaparib was injected with a 500-fold excess of Olaparib (562.68 μg) in 200 μL of a solution consisting of 75% saline and 25% DMSO (dimethyl sulfoxide). PET acquisition was performed at 1 h postinjection. The target tissue’s radioactivity content was measured, and the tissue-associated activity was expressed as %ID/g.

[6] = biological target: T1, PARP-1 protein (human, Recombinant (His Tag)) (Homo sapiens, UniProt P09874); assay: Surface plasmon resonance (SPR) binding assay; details: SPR imaging
T1 construct: His tag; purchased Sino Biological 11,040-H08B
Description: Furthermore, the compound Olaparib was used as a reference for affinity. The surface plasmon resonance binding assays were conducted according to the previous protocol.

PARP-1 in SK-OV-3 cells = assay: In vitro cell localization, FL-Olaparib confocal fluorescence with competition; details: FL-Olaparib 250 nM, presaturation with 1000-fold molar excess of competitor
Description: SK-OV-3 cells were plated on a confocal petri dish (diameter = 60 mm) at 500 × 10^3 cells/well density. […] The confocal dish was protected from light by wrapping it in tin foil. Three PBS washes (10 min each) were performed on each cell type. Paraformaldehyde was added for cell fixation, and DAPI was added for nuclear staining. The cells were rinsed twice with medium and once with PBS (5 min per wash) and observed using a confocal microscope (LEICA TCS SP5 II).
After 1 h of incubation, to determine the uptake by SK-OV-3 cells, assays were carried out and repeated as stated above.

SK-OV-3 models [7] = assay: Ex vivo biodistribution in SK-OV-3 models; parameters: species or system BALB/c nude mice
Description: as §1
(§2) Biodistribution experiments were conducted with SK-OV-3 models (10–12 weeks old, n = 3). ^68Ga-DOTA-Olaparib (1.85–5.55 MBq of ^68Ga-DOTA-Olaparib in 200 μL of saline) was administered via the lateral tail vein. After allowing the medication to circulate for varying amounts of time (0.5, 1, and 2 h), three mice were sacrificed. The tissue radioactivity (tumor, blood, muscle, bone, liver, spleen, kidney, heart, lung, bladder, brain, small intestine, and stomach) was measured using a γ-counter. The organs were weighed, and the γ-counter activity readings were decay-corrected to the injection time. Finally, the associated tissue activity was calculated by GraphPad Prism 9.0, and the data are expressed as %ID/g.
To verify specific tumor accumulation, ^68Ga-DOTA-Olaparib was administered with a 500-fold excess of Olaparib (530.94 μg) in 200 μL of a solution containing 75% saline and 25% DMSO via the lateral tail vein. After 1 h, mice (n = 3) were sacrificed to collect the tissues of interest. The associated tissue activity was measured as described above.

A549 models = assay: Ex vivo biodistribution in A549 models; parameters: species or system mice; details: 1 h
Description: as §2, with “To further compare and validate the specific uptake of ^68Ga-DOTA-Olaparib in different tumor models, biodistribution” for “Biodistribution”, “A549” for “SK-OV-3”, “(1.22–5.59” for “(1.85–5.55”

[8] = Ex vivo biodistribution in normal mice; details: 5-180 min after injection
Description: Normal mice (6–8 weeks old, n = 5) were utilized in the biodistribution experiments. ^68Ga-DOTA-Olaparib (0.74–2.96 MBq of 200 μL of saline) was administered via the lateral tail vein. The medication was allowed to circulate for 5, 15, 30, 60, 120, and 180 min before the mice were sacrificed. The radioactivity in the target tissues (blood, muscle, bone, liver, spleen, kidney, heart, lung, bladder, brain, small intestine, and stomach) was measured using a γ-counter. The organs were weighed, and the γ-counter activity readings were decay-corrected to the injection time. The corresponding tissue activity was then assessed using GraphPad Prism 9.0, and the data are presented as %ID/g using the following formula: [(activity in the target organ/target organ quality)/injected dose] * 100%.

Row | Structure (SMILES) | log Poctanol/water [1] | log Doctanol/PBS [2] | SK-OV-3/A549 uptake ratio (SK-OV-3 and A549 cells) | clear-phase half-life (t1/2β) [3] [min] | distribution-phase half-life (t1/2α) [3] [min] | plasma protein binding ([4]; 0.5 h) [%] | plasma protein binding ([4]; 1 h) [%] | plasma protein binding ([4]; 2 h) [%] | tumor uptake (PET/CT) (SK-OV-3 models [5]; 0.5 h after injection) [%ID/g] | tumor uptake (PET/CT) (SK-OV-3 models [5]; 1 h after injection) [%ID/g] | tumor uptake (PET/CT) (SK-OV-3 models [5]; 2 h after injection) [%ID/g] | further results
1 | O=C([O-])CN1CCN(CC(=O)O)CCN(CC(=O)[O-])CCN(CC(=O)NCC(=O)NCC(=O)NCC(=O)N2CCN(C(=O)c3cc(Cc4n[nH]c(=O)c5ccccc45)ccc3F)CC2)CC1.[68Ga+3] [68Ga-DOTA-(Gly)3-Olaparib] | -1.62 ± 0.075 | -1.75 ± 0.11 | 1.63 ± 0.13 | 23.19 | 0.40 | 39.32 ± 1.89 | 43.08 ± 7.20 | 43.56 ± 5.24 | 0.96 ± 0.13 | 0.57 ± 0.068 | 0.91 ± 0.11 | 
2 | O=C(O)CN1CCN(CC(=O)O)CCN(CC(=O)N2CCN(C(=O)c3cc(Cc4n[nH]c(=O)c5ccccc45)ccc3F)CC2)CCN(CC(=O)O)CC1 [DOTA-Olaparib] |  |  |  |  |  |  |  |  |  |  |  | pKd [6]: 7.84; effect on FL-Olaparib fluorescence signals (PARP-1 in SK-OV-3 cells): substantial reduction in fluorescence signals
3 | O=C([O-])CN1CCN(CC(=O)O)CCN(CC(=O)[O-])CCN(CC(=O)N2CCN(C(=O)c3cc(Cc4n[nH]c(=O)c5ccccc45)ccc3F)CC2)CC1.[68Ga+3] [68Ga-DOTA-Olaparib] | -2.33 ± 0.028 | -2.56 ± 0.026 | 1.47 ± 0.019 | 22.82 | 1.97 | 20.59 ± 1.23 | 32.85 ± 4.11 | 24.04 ± 0.80 |  | ~2.37 ± 0.37 | ~2.27 ± 0.32 | T/M (tumor-to-muscle) ratio (PET/CT) (SK-OV-3 models [5]; 0.5 h): approximately 3.54 ± 0.74; T/M (tumor-to-muscle) ratio (PET/CT), blocked (SK-OV-3 models [5]; 1 h, blocked with a 500-fold excess of Olaparib): 1.79 ± 0.26; T/M (tumor-to-muscle) ratio (PET/CT) (SK-OV-3 models [5]; 1 h, unblocked): ~4.07 ± 0.59; T/M (tumor-to-muscle) ratio (PET/CT) (SK-OV-3 models [5]; 2 h): ~7.31 ± 0.51; tumor/intestine ratio (SK-OV-3 models [7]; 1 h after administration): 2.05 ± 0.072; tumor/stomach ratio (SK-OV-3 models [7]; 1 h after administration): 2.97 ± 0.73; T/M ratio (ex vivo biodistribution) (SK-OV-3 models [7]; 2 h): 12.64 ± 1.32; tumor-to-bone ratio (ex vivo biodistribution) (SK-OV-3 models [7]; 2 h): 3.85 ± 0.68; tumor-to-brain ratio (ex vivo biodistribution) (SK-OV-3 models [7]; 2 h): 15.63 ± 1.58; bladder accumulation (SK-OV-3 models [7]; SK-OV-3 models, 0.5 h): 5.80 ± 1.47 %ID/g; kidneys accumulation (SK-OV-3 models [7]; SK-OV-3 models, 0.5 h): 3.11 ± 0.29 %ID/g; bladder accumulation (SK-OV-3 models [7]; SK-OV-3 models, 1 h): 2.57 ± 0.72 %ID/g; kidneys accumulation (SK-OV-3 models [7]; SK-OV-3 models, 1 h): 4.24 ± 0.22 %ID/g; tumor radioactivity (ex vivo biodistribution), blocked (SK-OV-3 models [7]; SK-OV-3 models, 1 h, 500-fold excess of Olaparib): 0.25 ± 0.027 %ID/g; tumor radioactivity (ex vivo biodistribution) (SK-OV-3 models [7]; SK-OV-3 models, 1 h postinjection): 1.26 ± 0.17 %ID/g; bladder accumulation (SK-OV-3 models [7]; SK-OV-3 models, 2 h): 0.064 ± 0.025 %ID/g; kidneys accumulation (SK-OV-3 models [7]; SK-OV-3 models, 2 h): 2.51 ± 0.33 %ID/g; tumor uptake (ex vivo biodistribution) (A549 models): 0.43 ± 0.10 %ID/g; order of clearance from the body [8]: kidney-bladder-urine
4 | O=C([O-])CN1CCN(CC(=O)O)CCN(CC(=O)[O-])CCN(CC(=O)NCCCC(=O)N2CCN(C(=O)c3cc(Cc4n[nH]c(=O)c5ccccc45)ccc3F)CC2)CC1.[68Ga+3] [68Ga-DOTA-GABA-Olaparib] | -2.16 ± 0.12 | -2.49 ± 0.15 | 2.43 ± 0.45 | 47.69 | 0.31 | 59.62 ± 2.40 | 83.84 ± 1.42 | 58.13 ± 6.63 | 0.96 ± 0.14 | 0.56 ± 0.12 | 0.98 ± 0.53 | 

Reference: paper PMC10317875, “PET imaging of PARP expression using ^68Ga-labelled inhibitors” (European Journal of Nuclear Medicine and Molecular Imaging, 2023)
